According to PubChem BioAssay AID1259407 (Chemical Carcinogenesis Research Information System (CCRIS), 2018):
Active and inactive are the calls of the source. How the calls were made is not given here.

Test system: CCRIS mutagenicity, Ames/micronucleus/aberration tests
Test: CCRIS mutagenicity studies
Settings: Test System: AMES SALMONELLA TYPHIMURIUM, Method: PREINCUBATION

Measured: mutagenic call

CCCCCCCCCCCCC/C([O-])=N/[N+](C)(C)CC(C)O (centres undefined)
inactive: Strain/Indicator: TA97, Metabolic Activation: HAMSTER, LIVER, S-9, AROCLOR 1254 (10 OR 30%) inactive; negative | Strain/Indicator: TA97, Metabolic Activation: NONE inactive; negative | Strain/Indicator: TA97, Metabolic Activation: RAT, LIVER, S-9, AROCLOR 1254 (10 OR 30%) inactive; negative | Strain/Indicator: TA98, Metabolic Activation: HAMSTER, LIVER, S-9, AROCLOR 1254 (10%) inactive; negative | Strain/Indicator: TA98, Metabolic Activation: HAMSTER, LIVER, S-9, AROCLOR 1254 (30%) inactive; negative | Strain/Indicator: TA98, Metabolic Activation: NONE inactive; negative | Strain/Indicator: TA98, Metabolic Activation: RAT, LIVER, S-9, AROCLOR 1254 (10%) inactive; negative | Strain/Indicator: TA98, Metabolic Activation: RAT, LIVER, S-9, AROCLOR 1254 (30%) inactive; negative | Strain/Indicator: TA100, Metabolic Activation: HAMSTER, LIVER, AROCLOR 1254 (10%) inactive; negative | Strain/Indicator: TA100, Metabolic Activation: HAMSTER, LIVER, S-9, AROCLOR 1254 (30%) inactive; negative | Strain/Indicator: TA100, Metabolic Activation: NONE inactive; negative | Strain/Indicator: TA100, Metabolic Activation: RAT, LIVER, S-9, AROCLOR 1254 (10%) inactive; negative | Strain/Indicator: TA100, Metabolic Activation: RAT, LIVER, S-9, AROCLOR 1254 (30%) inactive; negative | Strain/Indicator: TA1535, Metabolic Activation: HAMSTER, LIVER, S-9, AROCLOR 1254 (10 OR 30%) inactive; negative | Strain/Indicator: TA1535, Metabolic Activation: NONE inactive; negative | Strain/Indicator: TA1535, Metabolic Activation: RAT, LIVER, S-9, AROCLOR 1254 (10 OR 30%) inactive; negative | Strain/Indicator: TA1537, Metabolic Activation: HAMSTER, LIVER, S-9, AROCLOR 1254 (10 OR 30%) inactive; negative | Strain/Indicator: TA1537, Metabolic Activation: NONE inactive; negative | Strain/Indicator: TA1537, Metabolic Activation: RAT, LIVER, S-9, AROCLOR 1254 (10 OR 30%) inactive; negative
